Test results reported in ChEMBL document CHEMBL1287683, “Highly brominated metabolites from marine red alga Laurencia similis inhibit protein tyrosine phosphatase 1B” (Bioorg Med Chem Lett, 2010).

molecular target: T1, Tyrosine-protein phosphatase non-receptor type 1 (Homo sapiens, UniProt P18031); assay: Inhibition of protein tyrosine phosphatase 1B
T1 sequence (P18031 whole entry): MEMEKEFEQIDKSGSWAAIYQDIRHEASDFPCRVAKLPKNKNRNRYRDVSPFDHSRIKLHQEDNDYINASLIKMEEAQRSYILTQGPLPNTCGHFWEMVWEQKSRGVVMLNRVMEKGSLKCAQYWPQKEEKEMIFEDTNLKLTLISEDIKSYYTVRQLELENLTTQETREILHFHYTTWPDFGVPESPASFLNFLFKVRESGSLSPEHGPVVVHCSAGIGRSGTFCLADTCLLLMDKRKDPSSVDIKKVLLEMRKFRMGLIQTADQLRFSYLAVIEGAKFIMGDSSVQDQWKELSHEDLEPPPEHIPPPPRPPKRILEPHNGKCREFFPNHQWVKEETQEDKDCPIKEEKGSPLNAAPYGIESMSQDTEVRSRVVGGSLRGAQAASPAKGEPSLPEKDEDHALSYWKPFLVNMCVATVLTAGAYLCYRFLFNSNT

First: BrCc1cc(Br)c2cc(NBr)c(Br)c(Br)c2c1
Second: BrCc1cc(Br)c2cc(NBr)c(Br)cc2c1Br
The IC50 of the first is 1.6-fold higher: 185 µM for the first, 118 µM for the second.

Going from `Cc1cc(C)c(Oc2cc(Br)cc(Br)c2Br)c(Br)c1` to `BrCc1cc2cc(Br)c(NBr)cc2c(Br)c1Br`, the IC50 rises from 5.78 µM to 127 µM (22-fold).

Work on `COc1cc(C(=O)c2c(Br)c(Br)c(OC)c(OC)c2Br)c(Br)c(Br)c1OC` yielded an IC50 of 3.82 µM.
